Converted amounts (≈) assume the structure as drawn.
conditions: buffer; pH 7.4; 200.0 µM

| Structure (SMILES) | solubility kinetic |
| --- | --- |
| COc1ccc(S(=O)(=O)Nc2cccc(S(=O)(=O)N3CCCCC3)c2)cc1 | 44 µg/mL (≈ 107 µM) |
| Cc1nn(C)cc1C(C)Nc1nc2nonc2nc1N1CCCCC1 (stereo not given) | > 51.4 µg/mL |
| O=C(CCc1ccccc1O)NC1CCCc2ccccc21 (stereo not given) | > 44.3 µg/mL |
| COc1cc(NC(=S)N2CCN(CCO)CC2)cc(OC)c1 | > 48.8 µg/mL |
| N#C/C(=C(/O)c1ccc([N+](=O)[O-])cc1)c1nc2ccccc2[nH]1 | < 0.2 µg/mL |
| O=C1C(CCS(=O)c2ccccc2)C(=O)N(c2ccccc2)N1c1ccccc1 (stereo not given) | > 60.7 µg/mL |
| CCOC(=O)CNC(=O)CSc1nc(-c2cccc(C)c2)ns1 | 40.9 µg/mL (≈ 116 µM) |
| Cc1cccc(OCCCCCN2CCOCC2)c1C | 28.6 µg/mL (≈ 103 µM) |
| CCc1nnc(NC(=O)CN2CCN(S(C)(=O)=O)CC2)s1 | > 50 µg/mL |
| CCN(Cc1ccncc1)Cc1ccc(OC)cc1OC.O=C(O)C(=O)O | 43.5 µg/mL |
| O=C(NC1CCSC1=O)C1CC(=O)N(c2ccc(F)cc2)C1 (stereo not given) | 46.2 µg/mL (≈ 143 µM) |
| COc1cccc(C(=O)Nc2ccc3c(c2)n(C)c(=O)n3C)c1 | > 46.7 µg/mL |
| O=C(COc1ccccc1Cl)Nc1ccc2oc(=O)ccc2c1 | < 0.7 µg/mL |
| Cc1ccc(F)cc1NC(=O)C1C2CCC(O2)C1C(=O)O (stereo not given) | > 44 µg/mL |
| O=C(NC1CCCC1)c1cc(-c2cccc(Cl)c2)on1 | 1.5 µg/mL (≈ 5.16 µM) |
| CCOC(=O)N1CCc2c(sc3ncn(Cc4ccc(F)cc4)c(=O)c23)C1 | 20.8 µg/mL (≈ 53.7 µM) |
| COc1ccc(NC(=O)Nc2ccc(F)cc2)cn1 | > 39.2 µg/mL |
| O=c1oc(-c2ccccc2Br)nc2ccccc12 | 5.2 µg/mL (≈ 17.2 µM) |
| CN1CCN(S(=O)(=O)c2cccc(C(=O)N3CCN(c4ccccc4)CC3)c2)CC1 | 63.6 µg/mL (≈ 148 µM) |
| CNC(=O)COC(=O)/C=C/c1cccc(F)c1 | > 35.6 µg/mL |

| Structure (SMILES) | solubility kinetic |
| --- | --- |
| Cc1nc([N+](=O)[O-])c(C(=O)OCc2ccccc2C#N)n1C | > 45 µg/mL |
| COc1ccccc1OCCn1c(SCC(N)=O)nc2ccccc21 | 45.4 µg/mL (≈ 127 µM) |
| COCCNCC(=O)N1CCCCCC1.O=C(O)C(=O)O | > 45.7 µg/mL |
| Cc1nc2ccc([N+](=O)[O-])cc2nc1C | > 30.5 µg/mL |
| O=C(NCCCNC(=O)c1ccccn1)c1ccc(Cl)cc1 | 39 µg/mL (≈ 123 µM) |
| Cc1cccc(C)c1OCCNC(=O)OCc1ccccc1 | 15.8 µg/mL (≈ 52.8 µM) |
| Cc1ccc(NC(=S)c2ccc3ccccc3n2)c(C)c1 | < 0.3 µg/mL |
| O=C(O)CCn1c(Cc2ccccc2)nc2ccccc21 | > 42 µg/mL |
| O=C(COC(=O)Cn1cnc2ccccc21)Nc1ccc(OC(F)F)cc1 | > 56.3 µg/mL |
| CCOC(=O)CNc1cccc(C(F)(F)F)c1 | 8 µg/mL (≈ 32.4 µM) |
| Cc1cccc(NC2=C(Cl)C(=O)OC2OC(C)C)c1 (stereo not given) | > 42.3 µg/mL |
| Cc1cc(C)cc(NC(=O)C(=O)NCCCN2CCOCC2)c1 | > 47.9 µg/mL |
| Cl.c1cncc(CNC2CCCC2)c1 | > 37.4 µg/mL |
| C=CCN1C(=O)/C(=C/c2ccc(Br)s2)C(=O)NC1=S | 15.7 µg/mL (≈ 43.9 µM) |
| COC(=O)c1c(NC(=O)C2CC(C)=C(C)CC2C(=O)O)sc2c1CCCCC2 (stereo not given) | 58.1 µg/mL (≈ 143 µM) |
| Cc1ccc(NC(=O)OCc2cc(-c3ccccc3)on2)cc1 | < 0.3 µg/mL |
| Cl.c1ccc2c3c([nH]c2c1)CCNC3 | > 31.3 µg/mL |
| CN(Cc1cccc(Cl)c1Cl)C(=O)CCNC(=O)c1ccco1 | > 53.3 µg/mL |
| Cc1ccc(NC(=O)COc2cccc3c2OC(C)(C)C3)c(O)c1 | 6.8 µg/mL (≈ 20.8 µM) |
| CCc1ccc(OCC(=O)NC(C)C)cc1 | 30.9 µg/mL (≈ 140 µM) |

| Structure (SMILES) | solubility kinetic |
| --- | --- |
| CC(=O)Nc1ccc(NC(=O)CCCc2ccccc2)cc1 | 22.9 µg/mL (≈ 77.3 µM) |
| CNC(=O)COC(=O)CNC(=O)c1cc(Cl)cc([N+](=O)[O-])c1 | > 49.5 µg/mL |
| CSc1cccc(NC(=O)C2CC(=O)N(Cc3ccccc3)C2)c1 (stereo not given) | > 51.1 µg/mL |
| COc1ccc(NS(=O)(=O)c2cc(NC(=O)c3cncc(Br)c3)ccc2OC)cc1 | 21.9 µg/mL (≈ 44.5 µM) |
| COc1ccc(C2CC(C)(c3ccc(OC)cc3)Nc3ccccc3N2)cc1 (stereo not given) | < 0.4 µg/mL |
| CCN(c1ccccc1)c1nc(C#N)nc(N(CC)c2ccccc2)n1 | 0.9 µg/mL (≈ 2.61 µM) |
| COc1ccc(CCN2C(=O)CSC2=S)cc1OC | 6.1 µg/mL (≈ 20.5 µM) |
| Cc1[nH]c(=O)[nH]c(=O)c1S(=O)(=O)Nc1ccc(F)cc1Cl | > 50.1 µg/mL |
| N#Cc1nc(COc2ccc(F)cc2)oc1N1CCCCC1 | 11.7 µg/mL (≈ 38.8 µM) |
| CSc1ccccc1NC(=O)CCn1c(=O)oc2ccccc21 | > 49.3 µg/mL |
| O=C(N/N=C/c1ccc(N2CCOCC2)cc1)c1ccncc1 | > 46.6 µg/mL |
| CC(C)Cc1ccc(C(C)C(N)=Nc2ccc(O)cc2)cc1.Cl (stereo not given) | > 49.9 µg/mL |
| COc1ccc(C2C3=C(CCCC3=O)NC3=C2C(=O)c2ccccc23)cc1 (stereo not given) | < 0.8 µg/mL |
| COc1nc(C)cc(C)c1S(=O)(=O)c1ccc(Cl)cc1 | 1.7 µg/mL (≈ 5.45 µM) |
| COc1ccccc1OCc1csc(N)n1 | > 35.4 µg/mL |
| COc1ccccc1C(O)c1nccn1C (stereo not given) | > 32.7 µg/mL |
| CC(C)c1nc2cc(Cl)ccc2n(Cc2ccccc2)c1=O | 0.4 µg/mL (≈ 1.28 µM) |
| COc1ccc(/C=C/C(=O)OCC(=O)NC(C)CCc2ccccc2)cc1OC (stereo not given) | 23.9 µg/mL (≈ 60.1 µM) |
| CCN(C(=O)c1ccc2c(c1)OCO2)C12CC3CC(CC(C3)C1)C2 | 4 µg/mL (≈ 12.2 µM) |
| O=S(=O)(c1ccc(F)cc1)N1CCc2ccccc2C1 | 1.2 µg/mL (≈ 4.12 µM) |

— PubChem BioAssay AID1996
